Data as given in patent publication US20250041335A1, “PERCARBONATE COMPOSITIONS AND USES THEREOF” (ThermoLife International, LLC, priority 2023, published 2025).

What was measured:
[1] = label language of products on the market; cited from earlier work
human subject = settings: person, 2 grams oral, two 000 capsules, just before kayaking
[2] = 2 grams oral, two 000 capsules, immediately before exercise, all subjects, self-described
[3] = subject with diabetes, 2 grams oral, self-described
[4] = ingested before exercise, humans

Structure (SMILES): O=C([O-])[O-].O=C([O-])[O-].OO.OO.OO.[Na+].[Na+].[Na+].[Na+] [sodium percarbonate]
- endurance (human subjects; [2]): increased
- lactic acid burn (human subjects; [2]): reduced
- recovery during and after the session of exercise (human subjects; [2]): improved
- strength (human subjects; [2]): increased
- leg ache (human subjects; person, 2 grams oral before StairMaster cardio session after leg training, self-described): didn't ache as much as usual
- endurance levels (human subjects; person, 2 grams oral before StairMaster cardio session after leg training, without breaking fast): definitely better than normal
- breathing (human subjects; [3]): feels good
- recovery between sets (human subjects; [3]): quicker
- stamina/endurance through back workout and cardio (human subjects; [3]): still feel like I could keep going
- effects of ingestion per product poisoning warning [1]: may cause bloating, belching, irritation of the mouth and throat, nausea, vomiting, abdominal pain and diarrhea
- detrimental gastrointestinal effects (nausea, diarrhea) (humans; doses of 2-10 grams in humans, preferably capsule form): did not result in nausea, diarrhea or any other detrimental gastrointestinal effects
- endurance (humans; [4]): increased
- lactic acid "burn" (humans; [4]): decreased
- recovery from exercise (humans; [4]): improved
- stimulatory effects like those of caffeine and other stimulants (humans; [4]): did not have any appreciable stimulatory effects
- strength (humans; [4]): increased
- burning in muscles (human subject): did not feel any burning in their muscles
- endurance (human subject): greatly increased
